≈ marks a conversion by molar mass, not a printed value. Where “and” joins values, the source holds several entries; their conditions need not be identical. Equal values may be shown once. Read-outs that look alike come from different tables or passages of the source.

A short description of data set [1]: Solubility-increasing effect (UV spectrophotometry, 22 °C, 18 hours stirring). Here is the method: Therefore comparative examinations concerning the solubility-increasing effect were performed with model guest-molecules containing a basic group. (The measurements were carried out by UV spectrophotometry at 22° C. after stirring for 18 hours).
A short description of another data set: in vitro. The format is cell-based, human. Particulars: human, erythrocytes, pH 7.4. Here is the method: (§1) Solutions containing the test substances in 10 mM concentration were prepared in a 10 mM phosphate buffer at pH 7.4. The commercially available α-, β- and γ-CD products manufactured by Chinoin Chemical and Pharmaceutical Works Ltd. (Budapest, Hungary) were used.
(§2) DIMEB and TRIMEB, i.e. heptakis(2,6-di-O-methyl)-β-CD and heptakis(2,3,6-tri-O-methyl)-β-CD, respectively were prepared by the partial or total methylation of β-CD as described previously.
(§3) Fresh human blood (taken from healthy donors being under no medicinal treatment) treated by citrate as anticoagulant was centrifuged at 2000-3000× g for 10 minutes, then the supernatant was decanted, the eryhtrocytes were suspended in 5 ml of 10 mM isotonic phosphate buffer each and again centrifuged at 2000-3000× g for 10 minutes. After repeating twice this operation, the resulting erythrocytes were suspended in isotonic phosphate buffer to obtain a haematocrite volume of about 10%. This suspension (which could be stored in a refrigerator at about 4° C. for at most 48 hours) was used in further experiments.
(§4) 0.4 ml of erythrocyte suspension was added to a test solution of 4 ml total volume containing the tested CD-s and derivatives in various concentrations, then the mixture was incubated at 37° C. for 30 minutes. The mixture of 4 ml isotonic phosphate buffer and 0.4 ml erythrocyte suspension was used as blank trial (which was treated similarly to the samples).
(§5) After 30 minutes, the suspensions being present in the centrifuge tubes were centrifuged at 250-500× g for 10 minutes. (It was observed that no transparent supernatant, useful for spectrophotometric determination was obtained when the centrifuging was carried out for a shorter time.) After 10 minutes, the supernatants were drained off and their extinction was photometrically determined at 543 nm against a blank solution. In order to give the percentage of haemolysis, the extinction measured after a complete haemolysis had to be determined. This value was obtained in such a way that 0.4 ml of erythrocyte suspension was added to 4 ml of distilled water, then incubation and centrifuging were carried out in the same manner as described for the samples. The extinction of the solution thus obtained gave the 100% value of the haemolysis; when relating the measured extinctions of the samples to the 100% value, the extent of the haemolysis was obtained as a relative percentage.

The subject of data set [2] is human erythrocytes. Put plainly: in vitro. Type of data set: cell-based. Here is the method: as §1, §2, §3, §4, §5
Data set [3] concerns human erythrocytes. Particulars: cited from earlier work.
[4] abbreviates: 2.5% SUMEB vs 2.5% DIMEB solution, * UV maximum shifted (Sensit base).
Setting [5] is: human, erythrocytes, 0.5 h, pH 7.4.
The mark [6] stands for this setting: 37° C., pH 7,4, 10 mmoles isotonic phosphate buffer.

With `CC(Cc1ccccc1)NCCC(c1ccccc1)c1ccccc1` (racemic) [± Prenylamine base, Prenylamine], in data set [1] (setting [4]), the “SUMEB / DIMEB (ratio of solubilities)” value came out at 3.75. In addition, the solubility (as a rule, the concentration that dissolves in the medium under given conditions) at 18 h in data set [1] (2.5% dimeb solution) worked out at 2000 µg/mL (≈ 6.07 mM); in data set [1] (2.5% sumeb solution) it was 7500 µg/mL (≈ 22.8 mM); in data set [1] (water), 310 µg/mL (≈ 0.941 mM).
Regarding `CC(NCCC(c1ccccc1)c1ccccc1)c1ccccc1` (racemic) [± Sensit base], the “SUMEB / DIMEB (ratio of solubilities)” value in data set [1] is recorded as 1.53. The solubility at 18 h in data set [1] (2.5% dimeb solution) was determined as 5500 µg/mL (≈ 17.4 mM); in data set [1] (2.5% sumeb solution), 8500 µg/mL (≈ 26.9 mM); in data set [1] (water), 2100 µg/mL (≈ 6.66 mM).
For `C[C@@H]([C@H](O)c1ccccc1)N(C)C` [- N-Methylephedrine base, N-Methylephedrine], the “SUMEB / DIMEB (ratio of solubilities)” value in data set [1] (setting [4]) stood at 1.2. The figures for the solubility at 18 h in data set [1] (2.5% dimeb solution) and in data set [1] (2.5% sumeb solution) were 18500 µg/mL (≈ 103 mM) and 22000 µg/mL (≈ 123 mM), respectively.
Turning to `CC(C)CCC[C@@H](C)[C@H]1CC[C@H]2[C@@H]3CC=C4C[C@@H](O)CC[C@]4(C)[C@H]3CC[C@]12C` [Cholesterol], the “SUMEB / DIMEB (ratio of solubilities)” value in data set [1] (setting [4]) was found to be 0.37. Moreover, the solubility at 18 h in data set [1] (2.5% dimeb solution) came to 1710 µg/mL (≈ 4.42 mM); in data set [1] (2.5% sumeb solution), 640 µg/mL (≈ 1.66 mM); in data set [1] (water), 100 µg/mL (≈ 0.259 mM).
In the case of `COC[C@H]1O[C@@H]2O[C@H]3[C@H](O)[C@@H](OC)[C@@H](O[C@H]4[C@H](O)[C@@H](OC)[C@@H](O[C@H]5[C@H](O)[C@@H](OC)[C@@H](O[C@H]6[C@H](O)[C@@H](OC)[C@@H](O[C@H]7[C@H](O)[C@@H](OC)[C@@H](O[C@H]8[C@H](O)[C@@H](OC)[C@@H](O[C@H]1[C@H](O)[C@H]2OC)O[C@@H]8COC)O[C@@H]7COC)O[C@@H]6COC)O[C@@H]5COC)O[C@@H]4COC)O[C@@H]3COC` [DIMEB, heptakis(2,6-di-O-methyl)-β-CD], in “in vitro”, the HC50 (in general, the concentration giving 50% haemolysis) at 0.5 h is 1 mM and 1440 µg/mL; the MNTC at 0.5 h was 220 µM and 300 µg/mL. The “concentration giving the same percentage of haemolysis, relative to β-CD” value in the data set on human erythrocytes [2] is recorded as “one sixth”.
Turning to `c1ccc(Nc2ccccc2)cc1` [Diphenylamine], the “SUMEB / DIMEB (ratio of solubilities)” value in data set [1] (setting [4]) is 0.72. Besides, the solubility at 18 h is 520 µg/mL (≈ 3.07 mM) in data set [1] (2.5% dimeb solution) and 410 µg/mL (≈ 2.42 mM) in data set [1] (2.5% sumeb solution).
For the compound `COC[C@H]1O[C@@H]2O[C@H]3[C@H](OC)[C@@H](OC)[C@@H](O[C@H]4[C@H](OC)[C@@H](OC)[C@@H](O[C@H]5[C@H](OC)[C@@H](OC)[C@@H](O[C@H]6[C@H](OC)[C@@H](OC)[C@@H](O[C@H]7[C@H](OC)[C@@H](OC)[C@@H](O[C@H]8[C@H](OC)[C@@H](OC)[C@@H](O[C@H]1[C@H](OC)[C@H]2OC)O[C@@H]8COC)O[C@@H]7COC)O[C@@H]6COC)O[C@@H]5COC)O[C@@H]4COC)O[C@@H]3COC` [TRIMEB, heptakis(2,3,6-tri-O-methyl)-β-CD], in the data set “in vitro”, the HC50 at 0.5 h was 4 mM and 5700 µg/mL; the MNTC at 0.5 h was 1.4 mM and 2000 µg/mL. The “haemolytic effect, in words” value with human erythrocytes [2] is listed as “also higher than that of the mother compound”.
Regarding `OC[C@H]1O[C@@H]2O[C@H]3[C@H](O)[C@@H](O)[C@@H](O[C@H]4[C@H](O)[C@@H](O)[C@@H](O[C@H]5[C@H](O)[C@@H](O)[C@@H](O[C@H]6[C@H](O)[C@@H](O)[C@@H](O[C@H]7[C@H](O)[C@@H](O)[C@@H](O[C@H]1[C@H](O)[C@H]2O)O[C@@H]7CO)O[C@@H]6CO)O[C@@H]5CO)O[C@@H]4CO)O[C@@H]3CO` [α-CD], in “in vitro”, the 50% haemolytic concentration (HC50) at 0.5 h is 12 mM and 11700 µg/mL; the MNTC at 0.5 h is 6 mM and 5800 µg/mL. Besides, the “Haemolysis values, measured” value in the data set on human erythrocytes [2] (setting [5]) is 4.97%. Also, the “low concentration protecting human erythrocytes against heat-induced or osmotic haemolysis” value in the data set on human erythrocytes [3] is reported as 5 mmol. Moreover, the “concentration at (and above) which haemolysis is induced” value in the data set on human erythrocytes [3] (pH 7) is recorded as 6 mmol.
On to `OC[C@H]1O[C@@H]2O[C@H]3[C@H](O)[C@@H](O)[C@@H](O[C@H]4[C@H](O)[C@@H](O)[C@@H](O[C@H]5[C@H](O)[C@@H](O)[C@@H](O[C@H]6[C@H](O)[C@@H](O)[C@@H](O[C@H]7[C@H](O)[C@@H](O)[C@@H](O[C@H]8[C@H](O)[C@@H](O)[C@@H](O[C@H]1[C@H](O)[C@H]2O)O[C@@H]8CO)O[C@@H]7CO)O[C@@H]6CO)O[C@@H]5CO)O[C@@H]4CO)O[C@@H]3CO` [β-CD, β-cyclodextrin], for which, in the data set “in vitro”, the HC50 at 0.5 h is 6 mM and 6800 µg/mL; the MNTC at 0.5 h is 1.6 mM and 1800 µg/mL. Besides, in the data set with human erythrocytes [3] (setting [6]), the “concentration at (and above) which haemolysis is induced” value is recorded as 3 mmol.
For `OC[C@H]1O[C@@H]2O[C@H]3[C@H](O)[C@@H](O)[C@@H](O[C@H]4[C@H](O)[C@@H](O)[C@@H](O[C@H]5[C@H](O)[C@@H](O)[C@@H](O[C@H]6[C@H](O)[C@@H](O)[C@@H](O[C@H]7[C@H](O)[C@@H](O)[C@@H](O[C@H]8[C@H](O)[C@@H](O)[C@@H](O[C@H]9[C@H](O)[C@@H](O)[C@@H](O[C@H]1[C@H](O)[C@H]2O)O[C@@H]9CO)O[C@@H]8CO)O[C@@H]7CO)O[C@@H]6CO)O[C@@H]5CO)O[C@@H]4CO)O[C@@H]3CO` [γ-CD], in the data set “in vitro”, the HC50 at 0.5 h is 24 mM and 32000 µg/mL; the MNTC at 0.5 h is ≤ 9 mM and ≤ 11000 µg/mL. For the same compound, the “concentration at (and above) which haemolysis is induced” value with human erythrocytes [3] (setting [6]) is listed as 16 mmol. Further, in the data set with human erythrocytes [3], the “low concentration protecting human erythrocytes against heat-induced or osmotic haemolysis” value is reported as 10 mmol.
Regarding “trideca-O-methyl-monosuccinyl-β-cyclodextrin [SUMEB]”, in the data set on human erythrocytes [2], the “haemolytic effect, in words” value is reported as “significantly lower in comparison to the haemolytic effect of the mother compound”. In the data set on human erythrocytes [2] (setting [5]), the “concentration at which no haemolytic effect was observed” value amounted to 300 µg/mL and the “concentration with a haemolysis value of 50%” value was determined as 6500 µg/mL.
For the compound “trideca-O-methyl-monosuccinyl-β-cyclodextrin methyl ester [Succinyl-DIMEB methyl ester]”, in the data set on human erythrocytes [2], the “haemolytic effect, in words” value is reported as “not significantly different from the haemolytic effect of the trideca-O-methyl-monosuccinyl-β-CD”.

These data come from patent publication US5008386A, “Methylated cyclodextrin type compounds and process for preparing same” (Chinoin Gyogyszer es Vegyeszeti Termekek Gyara R.T., priority 1987, dated 1991).
